IC50 data for 32 compounds are collected here from US11065253B2, “Arylquinazolines” (Merck Patent GmbH, priority 2013, dated 2021).

Broadly, the IC50 is the concentration that inhibits the measured activity by half.

The first test relates to phospho-serine 2056 DNA-PK in HCT116 cells. As to the kind of experiment: DNA-PK phosphorylation at serine 2056 (cellular), ELISA in bleomycin-treated HCT116 cells. In kind it is cell-based. Particulars: Homo sapiens, HCT-116, 6 h, cellular; HCT116 cells, 10 μM bleomycin, six hours; read-out: IC50 pDNA-PK. The gist of the method: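 After overnight seeding, HCT116 cells received compound with 10 μM bleomycin for 6 h; phospho-DNA-PK ELISA signals were scaled to total DNA-PKcs, DMSO serving as blank.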
A general note: ELISA stands for enzyme-linked immunosorbent assay.
On to `OC(c1ccc(F)c(-c2ncnc3cc(N4CCOCC4)ccc23)c1)c1cncc(F)c1Cl` (centres unmarked) [Example 2, (4-Chloro-5-fluoropyridin-3-yl)-[4-fluoro-3-(7-morpholin-4-ylquinazolin-4-yl)phenyl]methanol], for which the IC50 is less than 0.5 µM.

`COc1ccnnc1C(O)c1ccc(F)c(-c2ncnc3cc(N4CCOCC4)ccc23)c1` (centres unmarked) [Example 18, [4-Fluoro-3-(7-morpholin-4-yl-quinazolin-4-yl)phenyl]-(4-methoxy-pyridazin-3-yl)methanol]: the 50% inhibitory concentration (IC50) was in the range of 0.5 to 5 µM.

Consider `O=C(O)c1ccc(C(O)c2cc(-c3ncnc4cc(N5CCOCC5)ccc34)c(F)cc2Cl)nn1` (centres unmarked) [Example 55, 6-{[2-Chloro-4-fluoro-5-(7-morpholin-4-yl-quinazolin-4-yl)phenyl]-hydroxymethyl}-pyridazine-3-carboxylic acid], for which the IC50 was 10 to 30 µM.

As for `OC(c1cc(-c2ncnc3cc(N4CCOCC4)ccc23)c(F)cc1Cl)c1nccnc1Cl` (centres unmarked) [Example 64, [2-Chloro-4-fluoro-5-(7-morpholin-4-yl-quinazolin-4-yl)phenyl]-(3-chloropyrazin-2-yl)-methanol], the IC50 was less than 0.5 µM.

As for `COc1cc(C(O)c2ccc(F)c(-c3ncnc4cc(N5CCOCC5)ccc34)c2)c(Cl)nn1` (centres unmarked) [Example 7, (3-Chloro-6-methoxy-pyridazin-4-yl)-[4-fluoro-3-(7-morpholin-4-yl-quinazolin-4-yl)phenyl]-methanol], the IC50 is less than 0.5 µM.

`O=c1ccc(C(O)c2ccc(F)c(-c3ncnc4cc(N5CCOCC5)ccc34)c2)n[nH]1` (centres unmarked) [Example 76, 6-{[4-Fluoro-3-(7-morpholin-4-yl-quinazolin-4-yl)phenyl]-hydroxymethyl}-2H-pyridazin-3-one]: the IC50 lay in the range of 0.5 to 5 µM.

`COc1ccc(C(O)c2ccc(F)c(-c3ncnc4cc(N5CCOCC5)ccc34)c2)nn1` (centres unmarked) [Example 74, [4-Fluoro-3-(7-morpholin-4-yl-quinazolin-4-yl)phenyl]-(6-methoxypyridazin-3-yl)methanol]: the IC50 was less than 0.5 µM.

The same test, now with this note: Homo sapiens, HCT-116, cellular DNA-PK phosphorylation at serine 2056, HCT116 cells; read-out: IC50 pDNA-PK.
On to `COc1nccnc1C(O)c1cc(-c2ncnc3cc(N4CCOCC4)ccc23)ccc1F` (centres unmarked) [Example 394, [2-Fluoro-5-(7-morpholin-4-yl-quinazolin-4-yl)-phenyl]-(3-methoxy-pyrazin-2-yl)-methanol], for which the IC50 lay in the range of 0.5 to 5 µM.

On to `OC(c1cc(-c2ncnc3cc(N4CCOCC4)ccc23)c(F)cc1F)c1ncnc2ccsc12` (centres unmarked) [Example 439, [2,4-Difluoro-5-(7-morpholin-4-yl-quinazolin-4-yl)-phenyl]thieno[3,2-d}-pyrimidin-4-yl-methanol], for which the IC50 was less than 0.5 µM.

Turning to `OC(c1cc(-c2ncnc3cc(N4CCOCC4)ccc23)c(F)cc1Cl)c1ncnc2sccc12` (centres unmarked) [Example 429, [2-Chloro-4-fluoro-5-(7-morpholin-4-yl-quinazolin-4-yl)-phenyl]thieno[2,3-d}-pyrimidin-4-yl-methanol], the IC50 is less than 0.5 µM.

On to `OC(c1cc(-c2ncnc3cc(N4CCOCC4)ccc23)ccc1F)c1ncnc2ccsc12` (centres unmarked) [Example 405, [2-Fluoro-5-(7-morpholin-4-yl-quinazolin-4-yl)-phenyl]thieno[3,2-d}-pyrimidin-4-yl-methanol], for which the IC50 is less than 0.5 µM.

As to `O=c1ccc(C(O)c2ccc(F)c(-c3ncnc4cc(N5CCOCC5)ccc34)c2)n[nH]1` (centres unmarked) [Example 367, 6-{[4-Fluoro-3-(7-morpholin-4-yl-quinazolin-4-yl)phenyl]-hydroxymethyl}-2H-pyridazin-3-one], the IC50 was 0.5 to 5 µM.

`COc1cncnc1C(O)c1cc(-c2ncnc3cc(N4CCOCC4)ccc23)ccc1Cl` (centres unmarked) [Example 408, [2-Chloro-5-(7-morpholin-4-yl-quinazolin-4-yl)-phenyl]-(5-methoxy-pyrimidin-4-yl)-methanol (Ena 2)]: the IC50 was in the range of 0.5 to 5 µM.

The test is the same for the next values; noted with them: Homo sapiens, HCT-116, phospho-serine 2056 DNA-PK, bleomycin-treated HCT116 cells; class symbols A-D; read-out: IC50 pDNA-PK.
With `O=C(O)COc1ccc(C(O)c2cc(-c3ncnc4cc(N5CCOCC5)ccc34)c(F)cc2Cl)nn1` (centres unmarked) [Example 113, (6-{[2-Chloro-4-fluoro-5-(7-morpholin-4-yl-quinazolin-4-yl)-phenyl]hydroxy-methyl}pyridazin-3-yl-oxy)acetic acid], the IC50 lay in the range of 10 to 30 µM.

Turning to `COc1ccc([C@@H](O)c2cc(-c3ncnc4cc(N5CCOCC5)ccc34)c(F)cc2Cl)nn1` [Example 136, (S)-[2-Chloro-4-fluoro-5-(7-morpholin-4-yl-quinazolin-4-yl)-phenyl]-(6-methoxy-pyridazin-3-yl)-methanol], the IC50 is less than 0.5 µM.

As for `COC(c1ccc(F)c(-c2ncnc3cc(N4CCOCC4)ccc23)c1)c1nccs1` (centres unmarked) [Example 177, 4-[2-Fluoro-5-(-methoxythiazol-2-ylmethyl)phenyl]-7-morpholin-4-yl-quinazoline], the IC50 fell in the range of 10 to 30 µM.

With `COC(=O)COc1ccc(C(O)c2cc(-c3ncnc4cc(N5CCOCC5)ccc34)c(F)cc2Cl)nn1` (centres unmarked) [Example 114, (6-{[2-Chloro-4-fluoro-5-(7-morpholin-4-yl-quinazolin-4-yl)-phenyl]hydroxy-methyl}pyridazin-3-yl-oxy)acetic acid methyl ester], the IC50 was 10 to 30 µM.

As for `COc1ccc(C(O)c2cc(-c3ncnc4cc(N5CCOCC5)ccc34)c(F)cc2F)cc1` (centres unmarked) [Example 120, [2,4-Difluoro-5-(7-morpholin-4-yl-quinazolin-4-yl)-phenyl]-(4-methoxyphenyl)-methanol], the half-inhibitory concentration (IC50) lay within 0.5 to 5 µM.

On to `CCOc1ccc(C(O)c2ccc(F)c(-c3ncnc4cc(N5CCOCC5)ccc34)c2)nn1` (centres unmarked) [Example 134, (6-Ethoxy-pyridazin-3-yl)-[4-fluoro-3-(7-morpholin-4-yl-quinazolin-4-yl)-phenyl] methanol], for which the IC50 is 0.5 to 5 µM.

The test is the same for the next values; noted with them: Homo sapiens, HCT-116, phospho-serine 2056 DNA-PK, bleomycin-treated HCT116 cells; read-out: IC50 pDNA-PK.
In the case of `[2H]c1c(N2CCOCC2)cc2ncnc(-c3cc(C(O)c4nccnc4C)ccc3F)c2c1[2H]` (centres unmarked) [Example 226, [3-(5,6-Dideuterio-7-morpholino-quinazolin-4-yl)-4-fluorophenyl]-(3-methylpyrazin-2-yl)-methanol], the IC50 is less than 0.5 µM.

On to `Oc1ncnc(C(O)c2cc(-c3ncnc4cc(N5CCOCC5)ccc34)ccc2Cl)c1Cl` (centres unmarked) [Example 330, 5-Chloro-6-{[2-chloro-5-(7-morpholin-4-yl-quinazolin-4-yl)-phenyl]hydroxy-methyl}pyrimidin-4-ol], for which the IC50 lay within 10 to 30 µM.

Consider `Cc1nccnc1/C(C(=O)O)=C1/C=CC(=O)C(c2ncnc3cc(N4CCOCC4)ccc23)=C1` [Example 331, (3-methyl-pyrazin-2-yl)-[3-(7-morpholin-4-ylquinazolin-4-yl)-4-oxocyclohexa-2,5-dien-(E)-ylidene]-acetic acid], for which the IC50 was 5 to 10 µM.

With `COc1ccc(C(C(N)=O)c2ccc(F)c(-c3ncnc4cc(N5CCOCC5)ccc34)c2)nn1` (centres unmarked) [Example 308, 2-[4-Fluoro-3-(7-morpholin-4-yl-quinazolin-4-yl)-phenyl]-2-(6-methoxypyridazin-3-yl)acetamide], the IC50 fell in the range of 10 to 30 µM.

As for `Cc1nccnc1C(O)c1ccc(F)c(-c2ncnc3cc(N4CCOCC4)c(F)cc23)c1` (centres unmarked) [Example 283, [4-Fluoro-3-(6-fluoro-7-morpholin-4-yl-quinazolin-4-yl)-phenyl]-(3-methyl-pyrazin-2-yl)-methanol], the concentration for half-maximal inhibition (IC50) is 10 to 30 µM.

In the case of `OC(c1ccc(F)c(-c2ncnc3cc(N4CCOCC4)ccc23)c1)c1nncc2ccoc12` (centres unmarked) [Example 335, [4-Fluoro-3-(7-morpholin-4-yl-quinazolin-4-yl)-phenyl]furo[2,3-d}-pyridazin-7-yl-methanol], the IC50 is less than 0.5 µM.

Turning to `COc1nccnc1C(C(N)=O)c1cc(-c2ncnc3cc(N4CCOCC4)ccc23)c(F)cc1Cl` (centres unmarked) [Example 320, 2-[2-Chloro-4-fluoro-5-(7-morpholin-4-yl-quinazolin-4-yl)-phenyl]-2-(3-methoxy-pyrazin-2-yl)acetamide], the IC50 fell in the range of 0.5 to 5 µM.

Take `NC(=O)C(c1ccc(F)c(-c2ncnc3cc(N4CCOCC4)ccc23)c1)c1nncc2sccc12` (centres unmarked) [Example 285, 2-[4-Fluoro-3-(7-morpholin-4-yl-quinazolin-4-yl)-phenyl]-2-thieno-[2,3-d}pyridazin-4-yl-acetamide]: the 50% inhibitory concentration (IC50) was 10 to 30 µM.

Staying with this test, now noted: cellular DNA-PK phosphorylation at serine 2056, HCT116 cells; read-out: IC50 pDNA-PK.
As for `Cc1nccnc1C(O)c1cc(-c2ncnc3cc(N4CCOCC4)ccc23)ccc1Cl` (centres unmarked) [Example 427, [2-Chloro-5-(7-morpholin-4-yl-quinazolin-4-yl)-phenyl]-(3-methyl-pyrazin-2-yl)-methanol (Ena 1)], the IC50 is 0.5 to 5 µM.

On to `Cn1cnc2ncnc(C(O)c3cc(-c4ncnc5cc(N6CCOCC6)ccc45)c(F)cc3Cl)c21` (centres unmarked) [Example 423, [2-Chloro-4-fluoro-5-(7-morpholin-4-yl-quinazolin-4-yl)-phenyl]-(7-methyl-7H-purin-6-yl)-methanol], for which the IC50 fell in the range of 5 to 10 µM.

As for `Cn1c(C(O)c2cc(-c3ncnc4cc(N5CCOCC5)ccc34)c(F)cc2Cl)cccc1=O` (centres unmarked) [Example 435, 6-{[2-Chloro-4-fluoro-5-(7-morpholin-4-yl-quinazolin-4-yl)-phenyl]hydroxy-methyl}-1-methyl-1H-pyridin-2-one], the IC50 was less than 0.5 µM.

The test is the same for the next values; noted with them: phospho-serine 2056 DNA-PK, bleomycin-treated HCT116 cells; class symbols A-D; read-out: IC50 pDNA-PK.
`Cc1nc(C(O)c2cnc(F)c(-c3ncnc4cc(N5CCOCC5)ncc34)c2)sc1C` (centres unmarked) [Example 203, (4,5-Dimethyl-thiazol-2-yl)-[6-fluoro-5-(7-morpholin-4-yl-pyrido[4,3-d}-pyrimidin-4-yl)-pyridin-3-yl]-methanol]: the IC50 fell in the range of 10 to 30 µM.

The same test, now with this note: phospho-serine 2056 DNA-PK, bleomycin-treated HCT116 cells; read-out: IC50 pDNA-PK.
With `[2H]C1([2H])OC([2H])([2H])C([2H])([2H])N(c2ccc3c(-c4cc(C(O)c5ccc(OC)nn5)c(Cl)cc4F)ncnc3c2)C1([2H])[2H]` (centres unmarked) [Example 244, [2-Chloro-4-fluoro-5-[7-(2,2,3,3,5,5,6,6-octadeuterio-morpholin-4-yl)quinazolin-4-yl]phenyl]-(6-methoxypyridazin-3-yl)methanol], the IC50 was less than 0.5 µM.
